Results on 21 molecules are retold here after patent US20210228562A1, “IRAK DEGRADERS AND USES THEREOF” (Kymera Therapeutics, Inc., priority 2019, published 2021).

What all share (format): cell-based
Assay [1] has as its target T1, Ikaros (protein product of gene IKZF1) (Homo sapiens, UniProt Q13422+Q96SW2).
T1 construct: endogenous in cells; host or cells: OCI-LY10
In words: Quantification of Ikaros degradation in OCI-LY10 cells (quantitative immunoblotting). The note with it: 6 h treatment. As to the method:
(§1) Degradation of Ikaros (protein product of gene IKZF1) and Aiolos (protein product of gene IKZF3) were determined by quantitative immunoblotting as follows. OCI-LY10 cells, 2×10^6 cells/well, were treated with listed concentrations of IRAK4 degraders or control compounds in 6 well plates for 6 h. Cells were collected, washed with cold PBS, lysed in RIPA buffer (Boston BioProducts BP-115D) with protease/phosphatase inhibitor cocktail (Roche 05892791001/Roche 04906837001) and centrifuged at 13000 RPM for 20 min to precipitate insoluble material. The supernatant fraction was diluted in SDS-PAGE loading buffer (Beyotime Bio P0015) and 20 μL of each sample was resolved on 4-12% Bis-Tris SDS-PAGE gels (Novex, WG1402BOX). Resolved samples were transferred to nitrocellulose membranes by wet electro-transfer method at 250 mV for 1.5 h. The membrane was blocked with LICOR blocking buffer (LI-COR, 927-50000) for 1 hour, washed three times with TBST (CST #99975) for 5 minutes each and incubated with primary antibody prepared in block buffer with 0.1% Tween-20 (Solarbio, P8220) at 4° C. overnight. Ikaros antibody was rabbit monoclonal D6N9Y (CST #14859), at 1:1000 dilution. Aiolos antibody was rabbit monoclonal D1C1E (CST #15103), at 1:1000 dilution. Signal was normalized to mouse anti-beta-Actin monoclonal 8H10D10 (CST #3700) used at 1:10,000 dilution. After incubation in primary antibodies, membranes were washed three times with TBST, 5 minutes each, incubated with fluorescently labeled secondary antibodies anti-rabbit IgG (Licor, 926-32211) at 1:5000 dilution; anti-mouse IgG (LI-COR, 926-68070) at 1:5000 dilution, for 1 hour at RT. After incubation in secondary, membranes were washed three times with TBST, 5 minutes each and read on LICOR Odyssey imager. Data was reported as signal for Ikaros or Aiolos relative to signal for actin, and normalized to DMSO-treated control.
A general note: In western blotting, separated proteins are transferred to a membrane and probed.

Assay [2] has as its target T2, Aiolos (protein product of gene IKZF3) (Homo sapiens, UniProt Q96SW2+Q9UKT9).
T2 construct: endogenous in cells; host or cells: OCI-LY10
In words: Quantification of Aiolos degradation in OCI-LY10 cells (quantitative immunoblotting). Conditions: 6 h treatment. As to the method: as §1

The target in another assay is T3, IRAK4 (Homo sapiens, UniProt Q9NWZ3).
T3 construct: endogenous in cells; host or cells: OCI-LY10
T3 sequence (Q9NWZ3 1-460): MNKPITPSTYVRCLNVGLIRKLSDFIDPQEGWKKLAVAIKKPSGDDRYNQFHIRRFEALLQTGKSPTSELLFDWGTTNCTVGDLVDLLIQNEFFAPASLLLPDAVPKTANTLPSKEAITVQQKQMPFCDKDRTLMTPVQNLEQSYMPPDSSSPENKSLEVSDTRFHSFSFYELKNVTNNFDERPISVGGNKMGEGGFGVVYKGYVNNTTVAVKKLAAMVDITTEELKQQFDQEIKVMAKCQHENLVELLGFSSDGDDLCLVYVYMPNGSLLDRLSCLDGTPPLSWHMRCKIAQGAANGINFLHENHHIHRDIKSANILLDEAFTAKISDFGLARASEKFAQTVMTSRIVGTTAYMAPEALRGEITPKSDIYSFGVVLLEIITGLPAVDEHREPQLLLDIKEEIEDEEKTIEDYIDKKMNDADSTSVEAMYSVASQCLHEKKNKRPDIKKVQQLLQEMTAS
In words: IRAK4 MSD Degradation in OCI-LY10. The note with it: OCI-LY10 cells. As for the experimental part: Degradation of IRAK4 in OCI-LY10 was quantitatively measured using Meso Scale Discovery technology. OCI-LY10 cells were seeded in 96-well plates (Corning 3799) with a density of 300,000 cells per well in 100 μL fresh media. Compounds were then added to the assay plates with a final top concentration of 1 to 10 μM in a 1:3 dilution series with total of 8 doses. The assay plates were then incubated for 4 to 24 hours at 37° C. under 5% CO2. The assay plates were then centrifuged for 5 minutes and the cell pellets were treated with 100 μL/well RIPA lysis buffer (Boston BioProducts BP-115D) with proteinase inhibitors. To prepare MSD assay plates (Meso Scale Discovery Catalog number L15XA-3), the plates were coated with 2 μg/mL capture antibody (mouse Anti-IRAK4 antibody [2H9], ab119942) in PBS, at 40 μL/well. The plates were then incubated overnight at 4° C., washed 3 times with 150 μL/well TBST buffer (Cell Signaling Technology, Catalog number 9997S) and blocked with 150 μL/well blocking buffer (Meso Scale Discovery Catalog number R93BA-4). Cell lysates were then added to MSD assay plates and the plates were incubated at room temperature for 1 hour. The plates were then washed 3 times with 150 μL/well TBST buffer and 25 μL/well primary detection antibody (rabbit Anti-IRAK4 antibody [Y279], from Abcam. Catalog number ab32511, 1 μg/mL). The assay plates were then incubated at room temperature for 1 hour, washed 3 times with 150 μL/well TBST buffer and 25 μL/well secondary detection antibody, SULFO-TAG anti-rabbit antibody were added (anti rabbit antibody from Meso Scale Discovery, Catalog number R32AB-1, 1 μg/mL). The assay plates were then incubated at room temperature for 1 hour, washed 3 times with 150 μL/well TBST buffer, and 150 μL/well MSD reading buffer (Meso Scale Discovery catalog number R92TC-2) was added. The plates were then analyzed by a MSD reader (Meso Scale Discovery, Model Quick Plex SQ 120). The data was then analyzed by software Prism 7.0 from GraphPad and the dose-depended IRAK4 degradation were fit using a three-parameter logistic equation to calculate DC50.

Where [3] appears, read: 24 hrs incubation, read-out: IRAK4 degradation in OCI-LY10 at 24 hrs: DC50.

Read-outs that look alike come from different tables or passages of the source. A value given as a limit tells only on which side of the number the result lay.

T2 sequence (Q9UKT9 whole entry): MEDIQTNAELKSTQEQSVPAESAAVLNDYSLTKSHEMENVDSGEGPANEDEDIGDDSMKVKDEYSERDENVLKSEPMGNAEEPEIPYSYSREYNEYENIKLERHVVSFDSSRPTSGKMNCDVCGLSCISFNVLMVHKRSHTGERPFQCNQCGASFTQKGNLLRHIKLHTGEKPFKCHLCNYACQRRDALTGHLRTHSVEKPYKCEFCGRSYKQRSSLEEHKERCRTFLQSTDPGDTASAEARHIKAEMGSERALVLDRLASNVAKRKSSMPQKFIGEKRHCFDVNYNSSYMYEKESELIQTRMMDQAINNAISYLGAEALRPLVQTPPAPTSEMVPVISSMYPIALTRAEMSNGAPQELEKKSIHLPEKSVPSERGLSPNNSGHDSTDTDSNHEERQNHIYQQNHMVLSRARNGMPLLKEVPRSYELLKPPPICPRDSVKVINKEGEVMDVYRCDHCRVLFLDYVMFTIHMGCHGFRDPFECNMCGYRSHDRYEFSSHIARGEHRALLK
T2 sequence (Q96SW2 whole entry): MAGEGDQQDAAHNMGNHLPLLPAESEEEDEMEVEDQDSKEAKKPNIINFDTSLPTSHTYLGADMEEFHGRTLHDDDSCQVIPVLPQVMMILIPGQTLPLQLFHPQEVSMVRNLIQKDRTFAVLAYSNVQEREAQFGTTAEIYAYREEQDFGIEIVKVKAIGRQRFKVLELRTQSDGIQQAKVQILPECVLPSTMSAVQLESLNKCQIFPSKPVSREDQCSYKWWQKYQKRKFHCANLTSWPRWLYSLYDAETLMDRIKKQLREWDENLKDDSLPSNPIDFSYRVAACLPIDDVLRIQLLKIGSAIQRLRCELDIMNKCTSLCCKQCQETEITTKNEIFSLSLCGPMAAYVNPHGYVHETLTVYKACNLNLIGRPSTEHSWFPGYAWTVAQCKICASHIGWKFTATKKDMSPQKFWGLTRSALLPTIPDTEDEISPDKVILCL
T2 sequence (Q16531 whole entry partner): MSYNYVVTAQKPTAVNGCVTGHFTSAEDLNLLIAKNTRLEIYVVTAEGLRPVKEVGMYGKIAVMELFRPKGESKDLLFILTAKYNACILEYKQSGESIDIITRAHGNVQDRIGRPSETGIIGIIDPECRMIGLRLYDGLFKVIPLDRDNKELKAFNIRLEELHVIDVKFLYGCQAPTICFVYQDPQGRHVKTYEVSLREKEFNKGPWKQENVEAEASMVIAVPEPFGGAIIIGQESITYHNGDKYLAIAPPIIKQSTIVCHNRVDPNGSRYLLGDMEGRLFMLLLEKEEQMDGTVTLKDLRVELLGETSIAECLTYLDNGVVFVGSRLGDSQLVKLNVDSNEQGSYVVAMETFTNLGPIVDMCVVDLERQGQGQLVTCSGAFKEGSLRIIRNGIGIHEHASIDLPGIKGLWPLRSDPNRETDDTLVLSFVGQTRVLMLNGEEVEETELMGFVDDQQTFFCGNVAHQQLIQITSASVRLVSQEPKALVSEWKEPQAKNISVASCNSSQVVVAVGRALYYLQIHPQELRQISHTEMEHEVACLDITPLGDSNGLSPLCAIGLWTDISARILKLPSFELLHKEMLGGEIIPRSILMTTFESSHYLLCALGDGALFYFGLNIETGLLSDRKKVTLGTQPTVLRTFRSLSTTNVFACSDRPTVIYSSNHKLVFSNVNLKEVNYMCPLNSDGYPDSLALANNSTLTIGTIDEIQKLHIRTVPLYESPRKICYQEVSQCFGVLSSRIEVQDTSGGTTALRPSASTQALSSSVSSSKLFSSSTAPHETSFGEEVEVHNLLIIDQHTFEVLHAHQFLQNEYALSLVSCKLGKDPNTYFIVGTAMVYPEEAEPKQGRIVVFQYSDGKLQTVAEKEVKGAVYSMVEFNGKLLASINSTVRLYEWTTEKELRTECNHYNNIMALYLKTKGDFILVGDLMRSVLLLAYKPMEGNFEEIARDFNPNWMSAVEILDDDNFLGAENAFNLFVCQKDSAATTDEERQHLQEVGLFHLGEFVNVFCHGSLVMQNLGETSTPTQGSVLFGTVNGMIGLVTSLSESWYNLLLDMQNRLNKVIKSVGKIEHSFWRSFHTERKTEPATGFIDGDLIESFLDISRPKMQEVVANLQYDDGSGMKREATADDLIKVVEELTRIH
T1 sequence (Q13422 whole entry): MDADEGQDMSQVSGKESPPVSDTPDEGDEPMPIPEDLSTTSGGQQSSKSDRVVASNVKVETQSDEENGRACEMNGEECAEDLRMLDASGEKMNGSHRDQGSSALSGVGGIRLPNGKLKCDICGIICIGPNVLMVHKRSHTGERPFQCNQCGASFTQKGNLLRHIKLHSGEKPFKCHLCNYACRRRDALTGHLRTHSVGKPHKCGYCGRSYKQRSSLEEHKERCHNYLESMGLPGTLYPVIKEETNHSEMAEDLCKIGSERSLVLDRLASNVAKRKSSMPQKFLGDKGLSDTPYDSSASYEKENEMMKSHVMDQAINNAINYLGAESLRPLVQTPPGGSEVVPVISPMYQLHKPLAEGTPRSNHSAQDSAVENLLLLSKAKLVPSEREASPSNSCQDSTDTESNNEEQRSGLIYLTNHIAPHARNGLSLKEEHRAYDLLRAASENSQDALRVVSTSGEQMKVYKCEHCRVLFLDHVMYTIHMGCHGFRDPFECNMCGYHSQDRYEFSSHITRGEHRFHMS
T1 sequence (Q96SW2 whole entry): as the sequence (Q96SW2 whole entry) above
T1 sequence (Q16531 whole entry partner): as the sequence (Q16531 whole entry partner) above

The term DC50 denotes the concentration giving 50% degradation. As to `COc1cc2nc([C@H]3CC[C@H](CN4CC5(CC(CCNc6cccc7c6C(=O)N(C6CCC(=O)NC6=O)C7=O)C5)C4)CC3)sc2cc1NC(=O)c1ccnc(C)n1` (stereo partly drawn) [I-16], the DC50 in assay [1] was less than 50 nM.
With `CC(C)(O)c1cc2nc(N3CCC(CN4CCC5(CC4)CC(Nc4cccc6c4C(=O)N(C4CCC(=O)NC4=O)C6=O)C5)CC3)sc2cc1NC(=O)c1cccc(C(F)(F)F)n1` (stereo not drawn) [I-4], the DC50 in assay [1] and in assay [2] was less than 50 nM in each case.
Regarding `COc1cc2nc([C@H]3CC[C@H](CN4CC5(CCC(CNc6cccc7c6C(=O)N(C6CCC(=O)NC6=O)C7=O)CC5)C4)CC3)sc2cc1NC(=O)c1cccc(C(C)(F)F)n1` (stereo partly drawn) [I-11], the half-maximal degradation concentration (DC50) in assay [1] was 100 to 500 nM; in assay [2], 50 to 100 nM.
For `CC(C)(O)c1nc2nc([C@H]3CC[C@H](CN4CC5(CC(CCNc6cccc7c6C(=O)N(C6CCC(=O)NC6=O)C7=O)C5)C4)CC3)sc2cc1NC(=O)c1cccc(C(F)(F)F)n1` (stereo partly drawn) [I-43], the DC50 in assay [1] and in assay [2] was less than 50 nM in each case.
Consider `CC(C)(O)c1cc2nc(N3CC(CN4CC5(CC(CNc6cccc7c6C(=O)N(C6CCC(=O)NC6=O)C7=O)C5)C4)C3)sc2cc1NC(=O)c1cccc(C(F)(F)F)n1` (stereo not drawn) [I-44], for which the DC50 in assay [1] and in assay [2] was less than 50 nM throughout.
In the case of `CC(C)(O)c1cc2nc([C@H]3CC[C@H](CN4CC5(CC(CCNc6cccc7c6C(=O)N(C6CCC(=O)NC6=O)C7=O)C5)C4)CC3)sc2cc1NC(=O)c1cccc(C(F)(F)F)n1` (stereo partly drawn) [I-3, N-[2-[4-[[6-[2-[[2-(2,6-dioxo-3-piperidyl)-1,3-dioxo-isoindolin-4-yl]amino]ethyl]-2-azaspiro[3.3]heptan-2-yl]methyl]cyclohexyl]-5-(1-hydroxy-1-methyl-ethyl)-1,3-benzothiazol-6-yl]-6-(trifluoromethyl)pyridine-2-carboxamide], the DC50 was 50 to 100 nM on IRAK4 (4 hrs incubation, read-out: IRAK4 degradation in OCI-LY10 at 4 hrs: DC50); less than 50 nM on IRAK4 (setting [3]); less than 50 nM in assay [1]; less than 50 nM in assay [2].
Consider `COc1cc2nc([C@H]3CC[C@H](CN4CC5(CC(CCNc6cccc7c6C(=O)N(C6CCC(=O)NC6=O)C7=O)C5)C4)CC3)sc2cc1NC(=O)c1cccc(C(F)(F)F)n1` (stereo partly drawn) [I-10], for which the DC50 in assay [1] and in assay [2] was less than 50 nM in each case.
Regarding `COc1cc2nc([C@H]3CC[C@H](CN4CCC(O[C@H]5C[C@H](Nc6cccc7c6C(=O)N(C6CCC(=O)NC6=O)C7=O)C5)CC4)CC3)sc2cc1NC(=O)c1cccc(C(F)(F)F)n1` (stereo partly drawn) [I-39], the DC50 in assay [1] and in assay [2] was less than 50 nM in each case.
In the case of `CC(C)(O)c1cc2nc([C@H]3CC[C@H](CN4CCC5(CC4)CC(CCNc4cccc6c4C(=O)N(C4CCC(=O)NC4=O)C6=O)C5)CC3)sc2cc1NC(=O)c1cccc(C(F)(F)F)n1` (stereo partly drawn) [I-5], the DC50 in assay [1] and in assay [2] was less than 50 nM throughout.
With `CC(C)(O)c1cc2nc(N3CCC(CN4CC5(CC(CCNc6cccc7c6C(=O)N(C6CCC(=O)NC6=O)C7=O)C5)C4)CC3)sc2cc1NC(=O)c1cccc(C(F)(F)F)n1` (stereo not drawn) [I-36], the DC50 in assay [1] and in assay [2] was less than 50 nM throughout.
Consider `CC(C)(O)c1cc2nc([C@H]3CC[C@H](CN4CC5(CC(CCCNc6cccc7c6C(=O)N(C6CCC(=O)NC6=O)C7=O)C5)C4)CC3)sc2cc1NC(=O)c1cccc(C(F)(F)F)n1` (stereo partly drawn) [I-13], for which the DC50 in assay [1] and in assay [2] was less than 50 nM throughout.
For `COc1cc2nc([C@H]3CC[C@H](CN4CC5(CC(CCNc6cccc7c6C(=O)N(C6CCC(=O)NC6=O)C7=O)C5)C4)CC3)sc2cc1NC(=O)c1cccc(C(C)(F)F)n1` (stereo partly drawn) [I-8], the DC50 in assay [1] and in assay [2] was less than 50 nM throughout.
For `CC(C)(O)c1cc2nc(N3CC(CN4CCC5(CC4)CC(CNc4cccc6c4C(=O)N(C4CCC(=O)NC4=O)C6=O)C5)C3)sc2cc1NC(=O)c1cccc(C(F)(F)F)n1` (stereo not drawn) [I-38], the DC50 in assay [1] and in assay [2] was less than 50 nM throughout.
Take `CC(C)(O)c1cc2nc([C@H]3CC[C@H](CN4CC5(CC(CCNc6cccc7c6C(=O)N(C6CCC(=O)NC6=O)C7=O)C5)C4)CC3)sc2cc1NC(=O)c1cnn2ccc(N3C[C@H]4C[C@@H]3CO4)nc12` (stereo partly drawn) [I-61]: the DC50 at IRAK4 (setting [3]) is more than 1000 nM.
`COc1cc2nc([C@H]3CC[C@H](CN4CCC5(CC4)CC(CCNc4cccc6c4C(=O)N(C4CCC(=O)NC4=O)C6=O)C5)CC3)sc2cc1NC(=O)c1cccc(C)n1` (stereo partly drawn) [I-12]: the DC50 in assay [1] and in assay [2] was less than 50 nM throughout.
As for `COc1cc2nc([C@H]3CC[C@H](CN4CCC5(CC4)CC(Nc4cccc6c4C(=O)N(C4CCC(=O)NC4=O)C6=O)C5)CC3)sc2cc1NC(=O)c1cccc(C)n1` (stereo partly drawn) [I-15], the DC50 in assay [1] lay within 100 to 500 nM; in assay [2], 50 to 100 nM.
For the molecule `COc1cc2nc([C@H]3CC[C@H](CN4CCC(CCNc5cccc6c5C(=O)N(C5CCC(=O)NC5=O)C6=O)CC4)CC3)sc2cc1NC(=O)c1cccc(C(C)(F)F)n1` (stereo partly drawn) [I-9], the DC50 in assay [1] is 50 to 100 nM; in assay [2], less than 50 nM.
`COc1cc2nc([C@H]3CC[C@H](CN4CCC5(CC4)CC(CCNc4cccc6c4C(=O)N(C4CCC(=O)NC4=O)C6=O)C5)CC3)sc2cc1NC(=O)c1ccnc(C)n1` (stereo partly drawn) [I-17]: the DC50 in assay [1] and in assay [2] was less than 50 nM in each case.
Consider `CN(CCCO[C@H]1C[C@H](Nc2cccc3c2C(=O)N(C2CCC(=O)NC2=O)C3=O)C1)C[C@H]1CC[C@H](c2nc3cc(C(C)(C)O)c(NC(=O)c4cccc(C(F)(F)F)n4)cc3s2)CC1` (stereo partly drawn) [I-7], for which the DC50 in assay [1] and in assay [2] was less than 50 nM in each case.
Regarding `COc1cc2nc([C@H]3CC[C@H](CN(C)[C@H]4CC[C@@]5(CC4)C[C@@H](CNc4cccc6c4C(=O)N(C4CCC(=O)NC4=O)C6=O)C5)CC3)sc2cc1NC(=O)c1cccc(C(F)(F)F)n1` (stereo partly drawn) [I-14], the DC50 in assay [1] is 50 to 100 nM; in assay [2] it was less than 50 nM.
For `CC(C)(O)c1cc2nc(N3CCC(CN4CCC5(CC4)CC(CCNc4cccc6c4C(=O)N(C4CCC(=O)NC4=O)C6=O)C5)CC3)sc2cc1NC(=O)c1cccc(C(F)(F)F)n1` (stereo not drawn) [I-18], in that order: less than 50 nM and less than 50 nM.
